Experimental data reported in patent publication US10787452B2 (Vertex Pharmaceuticals Incorporated, priority 2012, dated 2020).

Tested on: HCT116 colorectal cancer cells
Test: Cisplatin sensitization assay (96 h cell viability MTS);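 also: compound concentration needed to lower the Cisplatin-alone IC50 by a set fold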
Format: cell-based
Details: 96 h MTS, compound plus Cisplatin
Method in brief: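 Viability is measured with MTS reagent, added after 96 h and developed for 1 h at 37° C. Beforehand, cells receive compound and cisplatin simultaneously in a concentration matrix of 2-fold serial dilutions starting at 10 μM final.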

CS(=O)(=O)C1CCN(c2c(Cl)cncc2NC(=O)c2c(N)nn3cc(F)cnc23)C1 (centres unmarked) [I-N-287, 2-amino-N-(5-chloro-4-(3-(methylsulfonyl)pyrrolidin-1-yl)pyridin-3-yl)-6-fluoropyrazolo[1,5-a]pyrimidine-3-carboxamide]
Cisplatin Sensitization Assay: +++ (Compounds with a Cisplatin sensitization value of <0.02 μM are marked with “+++.”)

Nc1nn2cc(F)cnc2c1C(=O)Nc1cncc(F)c1N1CCC(n2ccnc2)CC1 [I-N-288, N-(4-(4-(1H-imidazol-1-yl)piperidin-1-yl)-5-fluoropyridin-3-yl)-2-amino-6-fluoropyrazolo[1,5-a]pyrimidine-3-carboxamide]
Cisplatin Sensitization Assay: +++ (Compounds with a Cisplatin sensitization value of <0.02 μM are marked with “+++.”)

CN1CCN(C(=O)C2CCCN(c3c(F)cncc3NC(=O)c3c(N)nn4cc(F)cnc34)C2)CC1 (centres unmarked) [I-N-289, 2-amino-6-fluoro-N-(5-fluoro-4-(3-(4-methylpiperazine-1-carbonyl)piperidin-1-yl)pyridin-3-yl)pyrazolo[1,5-a]pyrimidine-3-carboxamide]
Cisplatin Sensitization Assay: ++ (Compounds with a Cisplatin sensitization value >0.02 μM but <0.2 μM are marked with “++.”)

CN(C)C(=O)C1CCCN(c2ccncc2NC(=O)c2c(N)nn3cc(F)cnc23)C1 (centres unmarked) [I-N-290, 2-amino-N-(4-(3-(dimethylcarbamoyl)piperidin-1-yl)pyridin-3-yl)-6-fluoropyrazolo[1,5-a]pyrimidine-3-carboxamide]
Cisplatin Sensitization Assay: ++ (Compounds with a Cisplatin sensitization value >0.02 μM but <0.2 μM are marked with “++.”)

CN1CC[C@H](Oc2ccncc2NC(=O)c2c(N)nn3cc(F)cnc23)C1 [I-O-1, (S)-2-amino-6-fluoro-N-(4-((1-methylpyrrolidin-3-yl)oxy)pyridin-3-yl)pyrazolo[1,5-a]pyrimidine-3-carboxamide]
Cisplatin Sensitization Assay: +++ (Compounds with a Cisplatin sensitization value of <0.02 μM are marked with “+++.”)

CN(C)Cc1ccc(Oc2ccncc2NC(=O)c2c(N)nn3cc(F)cnc23)cn1 [I-O-3, 2-amino-N-(4-((6-((dimethylamino)methyl)pyridin-3-yl)oxy)pyridin-3-yl)-6-fluoropyrazolo[1,5-a]pyrimidine-3-carboxamide]
Cisplatin Sensitization Assay: ++ (Compounds with a Cisplatin sensitization value >0.02 μM but <0.2 μM are marked with “++.”)

COc1ccncc1NC(=O)c1c(N)nn2cc(F)cnc12 [I-O-4, 2-amino-6-fluoro-N-(4-methoxypyridin-3-yl)pyrazolo[1,5-a]pyrimidine-3-carboxamide]
Cisplatin Sensitization Assay: ++ (Compounds with a Cisplatin sensitization value >0.02 μM but <0.2 μM are marked with “++.”)

Nc1nn2cc(F)cnc2c1C(=O)Nc1cnccc1O[C@H]1CN2CCC1CC2 [I-O-5, (R)-2-amino-6-fluoro-N-(4-(quinuclidin-3-yloxy)pyridin-3-yl)pyrazolo[1,5-a]pyrimidine-3-carboxamide]
Cisplatin Sensitization Assay: +++ (Compounds with a Cisplatin sensitization value of <0.02 μM are marked with “+++.”)

Nc1nn2cc(F)cnc2c1C(=O)Nc1cnccc1Oc1cccnc1 [I-O-7, 2-amino-6-fluoro-N-(4-(pyridin-3-yloxy)pyridin-3-yl)pyrazolo[1,5-a]pyrimidine-3-carboxamide]
Cisplatin Sensitization Assay: ++ (Compounds with a Cisplatin sensitization value >0.02 μM but <0.2 μM are marked with “++.”)

Nc1nn2cc(F)cnc2c1C(=O)Nc1cnccc1OC1CCC(C(=O)O)CC1 (centres unmarked) [I-O-8, 4-((3-(2-amino-6-fluoropyrazolo[1,5-a]pyrimidine-3-carboxamido)pyridin-4-yl)oxy)cyclohexanecarboxylic acid]
Cisplatin Sensitization Assay: + (Compounds with a Cisplatin sensitization value >0.2 μM but <5 μM are marked with “+.”)

Nc1nn2cc(F)cnc2c1C(=O)Nc1cnccc1O[C@H]1CCCN(C2COC2)C1 [I-O-9, (S)-2-amino-6-fluoro-N-(4-((1-(oxetan-3-yl)piperidin-3-yl)oxy)pyridin-3-yl)pyrazolo[1,5-a]pyrimidine-3-carboxamide]
Cisplatin Sensitization Assay: ++ (Compounds with a Cisplatin sensitization value >0.02 μM but <0.2 μM are marked with “++.”)
